Laboratory results as given in patent US20240158446A1, “CYCLIC COMPOUND HAVING SELECTIVE INHIBITORY ACTION ON KRAS OVER HRAS AND NRAS” (CHUGAI SEIYAKU KABUSHIKI KAISHA, priority 2021, published 2024).
Like-named read-outs stand apart in the source and are kept apart here. Where a SMILES comes first, the peptide text is derived from it. Bridges are numbered along the chain shown (N, C = ends). [ ]: non-standard residue; d: D form. The star is where a group is joined. hPhe(3-Cl-4-CF3) = N[C@@H](CCc1ccc(C(F)(F)F)c(Cl)c1)C(=O)O; NPrPhe(4-CF3) = CCCN[C@@H](Cc1ccc(C(F)(F)F)cc1)C(=O)O; NMeAbu(4,4,4-F3) = CN[C@@H](CC(F)(F)F)C(=O)O; NMeGly(cPent) = CN[C@H](C(=O)O)C1CCCC1; Pro(4,4-F2) = O=C(O)[C@@H]1CC(F)(F)CN1; Hyp = O=C(O)[C@@H]1C[C@@H](O)CN1; NMeD = CN[C@@H](CC(=O)O)C(=O)O; NMeL = CN[C@@H](CC(C)C)C(=O)O; Morpholide = C1CN(*)CCO1; NMeA = CN[C@@H](C)C(=O)O; Ac5c = NC1(C(=O)O)CCCC1; Aze = O=C(O)[C@@H]1CCN1; Sar = CNCC(=O)O

Tests used:
[1] = target: GDP-bound KRAS wild-type protein (Homo sapiens, UniProt P01116); assay: Binding to KRAS by surface plasmon resonance (SPR), Single Cycle Kinetics; conditions: GDP-bound KRAS wild-type protein, read-out: KRAS KD
GDP-bound KRAS wild-type protein, sequence (P01116 whole entry): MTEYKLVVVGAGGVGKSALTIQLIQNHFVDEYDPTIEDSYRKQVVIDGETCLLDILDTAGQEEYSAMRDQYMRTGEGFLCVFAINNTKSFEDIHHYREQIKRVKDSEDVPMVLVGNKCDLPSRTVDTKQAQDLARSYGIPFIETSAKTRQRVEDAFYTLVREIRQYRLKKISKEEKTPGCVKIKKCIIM

[2] = target: GDP-bound NRAS wild-type protein (Homo sapiens, UniProt P01111); assay: Binding to NRAS by surface plasmon resonance (SPR), Single Cycle Kinetics; conditions: SPR, GDP-bound NRAS wild-type protein vs GDP-bound KRAS wild-type protein
GDP-bound NRAS wild-type protein, sequence (P01111 whole entry): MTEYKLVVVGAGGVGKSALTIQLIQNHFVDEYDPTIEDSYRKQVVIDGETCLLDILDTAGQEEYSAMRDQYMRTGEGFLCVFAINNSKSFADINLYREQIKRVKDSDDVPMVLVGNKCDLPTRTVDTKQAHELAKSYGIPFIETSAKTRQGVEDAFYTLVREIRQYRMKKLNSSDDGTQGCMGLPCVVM

[3] = target: GDP-bound HRAS wild-type protein (Homo sapiens, UniProt P01112); assay: Binding to HRAS by surface plasmon resonance (SPR), Single Cycle Kinetics; conditions: SPR, GDP-bound HRAS wild-type protein vs GDP-bound KRAS wild-type protein
GDP-bound HRAS wild-type protein, sequence (P01112 whole entry): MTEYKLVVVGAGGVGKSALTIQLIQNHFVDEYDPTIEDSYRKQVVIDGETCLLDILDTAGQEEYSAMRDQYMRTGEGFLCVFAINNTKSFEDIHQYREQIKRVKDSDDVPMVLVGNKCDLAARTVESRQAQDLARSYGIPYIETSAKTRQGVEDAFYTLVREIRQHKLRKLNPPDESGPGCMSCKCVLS

[4] = SPR Single Cycle Kinetics, 1:1 binding model

Structure (SMILES) | Kd [1, 4] [nM] | NRAS/KRAS (ratio of KD value for NRAS to KD value for KRAS) [2] | HRAS/KRAS (ratio of KD value for HRAS to KD value for KRAS) [3] | NRAS/KRAS (ratio of KD value with respect to NRAS to KD value with respect to KRAS) [2] | HRAS/KRAS (ratio of KD value with respect to HRAS to KD value with respect to KRAS) [3] | also measured
CCO[C@@H]1C[C@H]2C(=O)NC3(CC(C)(C)C3)C(=O)N(C)[C@@H](C3CCCC3)C(=O)N(C)[C@H](C(=O)N3CCCCC3)CC(=O)N(C)[C@H]3CCCCCc4ccc(cc4)C[C@@H](C(=O)N(C)CC(=O)N[C@@H](CCc4ccc(C(F)(F)F)c(OC)c4)C(=O)N2C1)N1CC/C=C\C[C@@H](C1=O)N(C)C(=O)CN(C)C(=O)[C@H]([C@@H](C)CC)NC3=O [PP3036, (1S,7S,11R,13S,19S,22S,26S,29S,35S,37Z)-19-cyclopentyl-11-ethoxy-7-[2-[3-methoxy-4-(trifluoromethyl)phenyl]ethyl]-3,3′,3′,18,21,25,31,34-octamethyl-29-[(1S)-1-methylpropyl]-22-(piperidine-1-carbonyl)spiro[3,6,9,15,18,21,25,28,31,34,41-undecazapentacyclo[24.15.10.2^43,46.1^35,41.0^9,13]tetrapentaconta-37,43(53),44,46(52)-tetraene-16,1′-cyclobutane]-2,5,8,14,17,20,24,27,30,33,54-undecone] | – | A (a compound having 10 or more and less than 20 is denoted as A) | B (a compound having 3 or more and less than 10 is denoted as B) | – | – | Kd ([1]; SPR, Single Cycle Kinetics): 0.17 nM
CCO[C@@H]1C[C@H]2C(=O)NC3(CCC3)C(=O)N(C)[C@@H](C3CCCC3)C(=O)N(C)[C@H](C(=O)N3CCOCC3)CC(=O)N(C)[C@@H](CC(C)C)C(=O)N[C@@H]([C@@H](C)CC)C(=O)N(C)CC(=O)N(C)[C@H]3CCCCCN(C3=O)[C@@H](Cc3ccc(C(F)(F)F)cc3)C(=O)N(C)CC(=O)N[C@@H](CCc3cc(F)c(C(F)(F)F)c(F)c3)C(=O)N2C1 [PP0467] | 0.59 | – | – | B (a compound having 3 or more and less than 10 is denoted as B) | B (a compound having 3 or more and less than 10 is denoted as B) | –
CCCN1C(=O)[C@@H]2CCN2C(=O)CN(C)C(=O)[C@H]([C@@H](C)CC)NC(=O)[C@H](CC(C)C)N(C)C(=O)C[C@@H](C(=O)N(C)C)N(C)C(=O)[C@H](C2CCCC2)N(C)C(=O)C2(CCCC2)NC(=O)[C@@H]2C[C@@H](OCC)CN2C(=O)[C@H](CCc2ccc(C(F)(F)F)c(Cl)c2)NC(=O)CN(C)C(=O)[C@@H]1Cc1ccc(C(F)(F)F)cc1 [PP0444] ([NMeL]I[Sar][Aze][NPrPhe(4-CF3)][Sar][hPhe(3-Cl-4-CF3)][Hyp](Et)[Ac5c][NMeGly(cPent)][NMeD]-NMe2; lactam N-11) | 0.031 | – | – | C (A compound having a KD ratio of 0.1 or more and less than 3 is denoted as C) | C (A compound having a KD ratio of 0.1 or more and less than 3 is denoted as C) | –
CC[C@H](C)[C@@H]1NC(=O)[C@H](COC)N(C)C(=O)C[C@@H](C(=O)N2CCOCC2)N(C)C(=O)[C@H](C2CCCC2)N(C)C(=O)C2(CCC2)NC(=O)[C@@H]2C[C@@H](OCC(C)C)CN2C(=O)[C@H](CCc2cc(F)c(C(F)(F)F)c(F)c2)NC(=O)CN(C)C(=O)[C@H](Cc2ccc(C(F)(F)F)cc2)N2CCCCC[C@@H](C2=O)N(C)C(=O)CN(C)C1=O [PP0839] | – | B (a compound having 3 or more and less than 10 is denoted as B) | B (a compound having 3 or more and less than 10 is denoted as B) | – | – | Kd ([1]; SPR, Single Cycle Kinetics): 1.1 nM
CC[C@H](C)[C@@H]1NC(=O)[C@H](CC(C)C)N(C)C(=O)C[C@@H](C(=O)N2CCOCC2)N(C)C(=O)[C@H](C2CCCC2)N(C)C(=O)C2(CCCC2)NC(=O)[C@@H]2CCCN2C(=O)[C@H](CCc2ccc(C(F)(F)F)c(Cl)c2)NC(=O)CN(C)C(=O)[C@H](Cc2ccc(F)cc2)N2CCCCC[C@@H](C2=O)N(C)C(=O)CN(C)C1=O [PP0612] | 0.39 | – | – | B (a compound having 3 or more and less than 10 is denoted as B) | B (a compound having 3 or more and less than 10 is denoted as B) | –
CCCN1C(=O)[C@@H]2CCN2C(=O)[C@H](C)N(C)C(=O)[C@H]([C@@H](C)CC)NC(=O)[C@H](CC(F)(F)F)N(C)C(=O)C[C@@H](C(=O)N2CCOCC2)N(C)C(=O)[C@H](C2CCCC2)N(C)C(=O)C2(CCCC2)NC(=O)[C@@H]2CC(F)(F)CN2C(=O)[C@H](CCc2ccc(C(F)(F)F)c(Cl)c2)NC(=O)CN(C)C(=O)[C@@H]1Cc1ccc(C(F)(F)F)cc1 [PP0203] ([NMeAbu(4,4,4-F3)]I[NMeA][Aze][NPrPhe(4-CF3)][Sar][hPhe(3-Cl-4-CF3)][Pro(4,4-F2)][Ac5c][NMeGly(cPent)][NMeD]-Morpholide; lactam N-11) | 0.094 | C (A compound having a KD ratio of 0.1 or more and less than 3 is denoted as C) | C (A compound having a KD ratio of 0.1 or more and less than 3 is denoted as C) | – | – | –
CC[C@H](C)[C@@H]1NC(=O)[C@H](CC(C)C)NC(=O)C[C@@H](C(=O)N2CCOCC2)N(C)C(=O)[C@H](C2CCCC2)N(C)C(=O)C2(CCCC2)NC(=O)[C@@H]2CCCN2C(=O)[C@H](CCc2cc(F)c(C(F)(F)F)c(F)c2)NC(=O)CN(C)C(=O)[C@H](Cc2ccc(C(F)(F)F)cc2)N2CCCCC[C@@H](C2=O)N(C)C(=O)CN(C)C1=O [PP0516] | 10 | – | – | B (a compound having 3 or more and less than 10 is denoted as B) | B (a compound having 3 or more and less than 10 is denoted as B) | –
CC[C@H](C)[C@@H]1NC(=O)[C@H](CC)N(C)C(=O)C[C@@H](C(=O)N(C)C)N(CC)C(=O)[C@H](C2CCCC2)N(C)C(=O)C2(CCC2)NC(=O)[C@@H]2CCCN2C(=O)[C@H](CCc2cc(F)c(C(F)(F)F)c(F)c2)NC(=O)CN(C)C(=O)[C@H](Cc2ccc(C(F)(F)F)cc2)N2CC/C=C\C[C@@H](C2=O)N(C)C(=O)CN(C)C1=O [PP1106] | – | A (a compound having 10 or more and less than 20 is denoted as A) | A (a compound having 10 or more and less than 20 is denoted as A) | – | – | Kd ([1]; SPR, Single Cycle Kinetics): 0.81 nM
CC[C@H](C)[C@@H]1NC(=O)[C@H](CC2CC2)N(C)C(=O)C[C@@H](C(=O)N(C)C)N(C)C(=O)[C@H](C2CCCC2)N(C)C(=O)C2(CCCC2)NC(=O)[C@@H]2C[C@H](C)CN2C(=O)[C@H](CCc2cc(F)c(C(F)(F)F)c(F)c2)NC(=O)CN(C)C(=O)[C@H](Cc2ccc(C(F)(F)F)cc2)N2CC/C=C\C[C@@H](C2=O)N(C)C(=O)CN(C)C1=O [PP1511, (2S,8S,12S,14S,20S,23S,27S,30S,36S,38Z)-20-cyclopentyl-27-(cyclopropylmethyl)-8-[2-[3,5-difluoro-4-(trifluoromethyl)phenyl]ethyl]-N,N,4,12,19,22,26,32,35-nonamethyl-30-[(1S)-1-methylpropyl]-3,6,9,15,18,21,25,28,31,34,42-undecaoxo-2-[[4-(trifluoromethyl)phenyl]methyl]spiro[1,4,7,10,16,19,22,26,29,32,35-undecazatricyclo[34.5.1.0^10,14]dotetracont-38-ene-17,1′-cyclopentane]-23-carboxamide] | – | – | – | – | – | Kd ([1]; SPR, Single Cycle Kinetics, 1:1 binding model): 0.099 nM; NRAS/KRAS (ratio of KD value for NRAS to KD value for KRAS) ([2]; KD ratio class): AA (a compound having 20 or more is denoted as AA); HRAS/KRAS (ratio of KD value for HRAS to KD value for KRAS) ([3]; KD ratio class): A (a compound having 10 or more and less than 20 is denoted as A)

Now from value to compound, other results behind:

Kd [1, 4] [nM] | Structure (SMILES) | NRAS/KRAS (ratio of KD value for NRAS to KD value for KRAS) [2] | HRAS/KRAS (ratio of KD value for HRAS to KD value for KRAS) [3] | NRAS/KRAS (ratio of KD value with respect to NRAS to KD value with respect to KRAS) [2] | HRAS/KRAS (ratio of KD value with respect to HRAS to KD value with respect to KRAS) [3] | also measured
3.6 | CCO[C@@H]1C[C@H]2C(=O)NC3(CCC3)C(=O)N(C)[C@@H](C3CCCC3)C(=O)N(C)[C@H](C(=O)N(C)C)CC(=O)N(C)C[C@@H](C)C(=O)N[C@@H]([C@@H](C)CC)C(=O)N(C)CC(=O)N(C)[C@H]3CCCCN(C3=O)[C@@H](Cc3ccc(C(F)(F)F)cc3)C(=O)N(C)CC(=O)N[C@@H](CCc3cc(F)c(C(F)(F)F)c(F)c3)C(=O)N2C1 [PP0706] | – | – | B (a compound having 3 or more and less than 10 is denoted as B) | B (a compound having 3 or more and less than 10 is denoted as B) | –
1.1 | CCO[C@@H]1C[C@H]2C(=O)NC3(CC(C)(C)C3)C(=O)N(C)[C@@H](C3CCCC3)C(=O)N(C)[C@H](C(=O)N3CCOCC3)CC(=O)N(C)[C@@H](CC(C)C)C(=O)N[C@@H]([C@@H](C)CC)C(=O)N(C)CC(=O)N(C)[C@H]3CCCCCN(C3=O)[C@@H](Cc3ccc(C(F)(F)F)cc3)C(=O)N(C)CC(=O)N[C@@H](CCc3cc(F)c(C(F)(F)F)c(F)c3)C(=O)N2C1 [PP0726] | – | – | B (a compound having 3 or more and less than 10 is denoted as B) | B (a compound having 3 or more and less than 10 is denoted as B) | –
0.28 | CCO[C@@H]1C[C@H]2C(=O)NC3(CCC3)C(=O)N(C)[C@@H](C3CCCC3)C(=O)N(C)[C@H](C(=O)N(C)C)CC(=O)N(C)[C@@H](CC)C(=O)N[C@@H]([C@@H](C)CC)C(=O)N(C)CC(=O)N(C)[C@H]3CCCCCN(C3=O)[C@@H](Cc3ccc(C(F)(F)F)cc3)C(=O)N(C)CC(=O)N[C@@H](CCc3cc(F)c(C(F)(F)F)c(F)c3)C(=O)N2C1 [PP0663] | – | – | B (a compound having 3 or more and less than 10 is denoted as B) | B (a compound having 3 or more and less than 10 is denoted as B) | –
